Earlier results, collected in patent publication US20100227830A1, “USE OF ESCIN” (MARINOMED BIOTECHNOLOGIE GMBH, priority 2006, published 2010).

Tested on: nuclear factor-KB (NF-κB)
Settings: after traumatic brain injury in rats

Substance: β-escin
- NF-κB expression level in tissue: significant reduction of NF-κB expression level
